These results are taken from patent US9090594B2, “PIM kinase inhibitors and preparation methods and use in medicinal manufacture thereof” (JIKAI BIOSCIENCES, INC., priority 2011, dated 2015).

The assay concerns the target T1, PIM-1 (Homo sapiens, UniProt P11309).
T1 construct: purchased Millipore Corporation 14-573
The experiment in a line: PIM Kinase Activity Assay-IMAP Fluorescence Polarization Assay (PIM-1). Type of assay: biochemical. The settings on record: 3 μM concentration. As for the experimental part:
In the present invention, the PIM activities of the compounds were tested by BioDuro (Building E, No. 29 Life Science Park Road, Changping District, Beijing, 102206, P.R. China). The method used for testing is PIM Kinase Activity Assay-IMAP Fluorescence Polarization Assay
PIM Kinase Activity Assay-IMAP Fluorescence Polarization Assay
PIM Is a serine/threonine protein kinase, they can phosphorylate 5-FAM labeled small peptide substrates. Fluorescence polarization is less for non-phosphorylated substrates since that can not bind to the binder (metal binding nanoparticles). On the other hand, fluorescence polarization is more for phosphorylated substrates since that can bind to the binder. The level of 5-FAM labeled small peptide substrates phosphorylation reflects the activities of PIM kinase. By measuring their ability of inhibiting PIM kinase of the compounds of the present invention, their activities of inhibiting PIM kinases can be determined.
EnVision (PerkinElmer, Waltham, Mass.)
PIM1 (Millipore Cat. #14-573) (Millipore Corporation, Billerica, Mass.)
5-FAM labeled peptide (5-FAM-RSRHSSYPAGT, AnaSpec Cat.#63801) (AnaSpec Inc., Fremont, Calif.)
IMAP FP Screening Express kit (IMAP FP Screening kit) (Molecular Devices Cat.# R8127) (Molecular Devices, Sunnyvale, Calif.)
a) 10 mM compound stock solution is diluted to appropriate concentration with 100% DMSO, then diluted 10 fold to targeted concentration with test butter to keep DMSO concentration at 10%
1 ul of compound solution and 4 ul of enzyme (PIM-1final concentration 0.025 nM, PIM-2 concentration 3 nM) is incubated at 23° C. for 15 min, 2.5 ul ATP (for PIM-1 and PIM-2, the final ATP concentrations are 30 uM and 5 uM respectively) 2.5 ul 5-FAM labeled peptide (final concentration 100 nM) was added to start the reaction. The reaction is run at 23° C. for 60 min. DMSO is used in place of compound stock solution as maximum reference and assay buffer is used in place of enzyme as minimum reference. c) add 30 ul IMAP binding reagent (containing 75% IMAP Buffer A, 25% IMAP Buffer B, 1/600 dilution of beads) to stop the reaction, incubated at room temperature for 60 min d) Measure fluorescence polarization, excitation wavelength: 485 nm, emission wavelength 530 nm. 6. Data Process IC50 values were calculated using Graphpad Prism®.
In general terms: Fluorescence polarisation rises when a labelled molecule tumbles more slowly, as on binding a larger partner.

Structures are written as SMILES.

T1 sequence (P11309 whole entry): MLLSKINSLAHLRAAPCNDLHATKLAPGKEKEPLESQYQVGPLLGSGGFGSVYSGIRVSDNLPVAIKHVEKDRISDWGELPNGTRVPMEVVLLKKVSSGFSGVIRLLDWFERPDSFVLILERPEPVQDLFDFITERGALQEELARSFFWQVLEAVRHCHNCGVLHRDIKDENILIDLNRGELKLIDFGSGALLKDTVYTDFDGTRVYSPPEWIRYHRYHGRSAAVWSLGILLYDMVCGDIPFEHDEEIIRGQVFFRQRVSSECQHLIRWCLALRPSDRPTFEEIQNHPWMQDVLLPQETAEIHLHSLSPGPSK

For orientation: inhibition means the change of the read-out against control, counted positive when it falls. Higher therefore signals a response far below the control. `O=C(Nc1cncnc1OC1CCNCC1)c1coc(-c2c(F)cccc2F)n1` [Compound 57, 2-(2,6-difluorophenyl)-N-(4-(piperidin-4-yloxy)pyrimidin-5-yl)oxazole-4-carboxamide]: the inhibition at 3 µM is 20 to 50%.

Regarding `O=C(Nc1cncnc1OC1CCNCC1)c1csc(N2CCCCC2)n1` [Compound 61, 2-(piperidin-1-yl)-N-(4-(piperidin-4-yloxy)pyrimidin-5-yl)thiazole-4-carboxamide], the inhibition at 3 µM was in the range of 20 to 50%.

`CC(=O)Nc1nc(C(=O)Nc2cncnc2OC2CCNCC2)cs1` [Compound 62, 2-acetamido-N-(4-(piperidin-4-yloxy)pyrimidin-5-yl)thiazole-4-carboxamide] returned an inhibition at 3 µM of 20 to 50%.

`O=C(Nc1cncnc1OC1CCNCC1)c1csc(C2CCNCC2)n1` [Compound 59, 2-(piperidin-4-yl)-N-(4-(piperidin-4-yloxy)pyrimidin-5-yl)thiazole-4-carboxamide] had an inhibition at 3 µM of 20 to 50%.

`Nc1sc(-c2c(F)cccc2F)nc1C(=O)Nc1cncnc1S(=O)(=O)CCCO` [Compound 63, 5-amino-2-(2,6-difluorophenyl)-N-(4-((3-hydroxypropyl)sulfonyl)pyrimidin-5-yl)thiazole-4-carboxamide] had an inhibition at 3 µM of 20 to 50%.

On to `CC(C)c1nc(C(=O)Nc2cncnc2OC2CCNCC2)cs1` [Compound 33, 2-isopropyl-N-(4-(piperidin-4-yloxy)pyrimidin-5-yl)thiazole-4-carboxamide], for which the inhibition at 3 µM lay in the range of 20 to 50%.

For `O=C(Nc1cncnc1OC1CCNCC1)c1csc(N2CCOCC2)n1` [Compound 60, 2-morpholino-N-(4-(piperidin-4-yloxy)pyrimidin-5-yl)thiazole-4-carboxamide], the inhibition at 3 µM is 20 to 50%.
